Data taken from patent US9073830B2 (Hyundai Pharm Co., Ltd., priority 2011, dated 2015).

Experiments:
mouse 11β-HSD1 = molecular target: T1, mouse 11β-HSD1 (Mus musculus, UniProt P50172); assay: Enzyme activity analysis on mouse 11β-HSD1 (HTRF cortisol, liver microsomes); assay type: biochemical; details: second value of cell
T1 construct: 100 ug/ml human/mouse liver microsomes; from tissue; host or cells: mouse liver microsomes
Description: (§1) After culturing at 37° C. for 2 hours, 5 μl of cryptate-labeled anti-cortisol antibody and 5 μl of d2-labeled cortisol were added thereto. After further culturing at room temperature for 2 hours, a homogeneous time-resolved fluorescence (HTRF, Cisbio) signal was measured. From each analysis, based on a standard curve calculated using cortisols of several known concentrations, an amount of produced cortisol was tested.
(§2) While an amount of cortisol, produced without the compound, was used as a control, an inhibition percentage by the test compound, at each concentration, was calculated. By using an inhibition curve calculated by coordinates of inhibition percentage to test compound concentration, an IC50 value of the compound on 11β-HSD1 was obtained.

human 11β-HSD1 = molecular target: T2, human 11β-HSD1 (Homo sapiens, UniProt P28845); assay: Enzyme activity analysis on human 11β-HSD1 (HTRF cortisol, liver microsomes); assay type: biochemical; details: first value of cell
T2 construct: 100 ug/ml human/mouse liver microsomes; from tissue; host or cells: human liver microsomes
Description: as §1, §2

T2 sequence (P28845 whole entry): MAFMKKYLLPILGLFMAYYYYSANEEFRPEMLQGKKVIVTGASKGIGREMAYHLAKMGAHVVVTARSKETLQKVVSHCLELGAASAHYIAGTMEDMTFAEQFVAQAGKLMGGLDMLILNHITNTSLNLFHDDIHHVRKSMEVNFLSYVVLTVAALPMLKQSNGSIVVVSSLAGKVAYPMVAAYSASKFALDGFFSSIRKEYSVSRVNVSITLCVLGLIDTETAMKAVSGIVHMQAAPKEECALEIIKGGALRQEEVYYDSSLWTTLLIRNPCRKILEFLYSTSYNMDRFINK
T1 sequence (P50172 whole entry): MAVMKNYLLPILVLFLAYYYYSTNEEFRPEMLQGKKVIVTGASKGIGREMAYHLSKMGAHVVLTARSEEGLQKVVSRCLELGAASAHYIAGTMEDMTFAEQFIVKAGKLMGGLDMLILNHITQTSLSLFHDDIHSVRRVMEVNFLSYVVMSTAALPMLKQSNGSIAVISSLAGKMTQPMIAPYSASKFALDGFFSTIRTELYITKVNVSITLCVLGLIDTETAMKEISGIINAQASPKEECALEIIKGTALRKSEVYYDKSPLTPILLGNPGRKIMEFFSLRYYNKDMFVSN

Row | IC50 (mouse 11β-HSD1) [µM] | IC50 (human 11β-HSD1) [µM] | SMILES
1 | 0.008 | 0.004 | CN(C(C)(C)C(=O)NC1C2CC3CC1CC(C(N)=O)(C3)C2)S(=O)(=O)c1ccccc1[N+](=O)[O-] (centres unmarked) [compound 197, N-4-(2-(2-nitro-N-methylphenylsulfonamido)-2-methylpropanamido)adamantane-1-carboxyamide]
2 | 0.012 | 0.007 | CN(C(C)(C)C(=O)NC1C2CC3CC1CC(C(N)=O)(C3)C2)S(=O)(=O)c1ccccc1C(F)(F)F (centres unmarked) [compound 193, N-4-(2-(2-trifluoromethyl-N-methylphenylsulfonamido)-2-methylpropanamido)adamantane-1-carboxyamide]
3 | 0.006 | 0.009 | NC(=O)C12CC3CC(C1)C(NC(=O)C1(NS(=O)(=O)c4cccc(Cl)c4F)CCCC1)C(C3)C2 (centres unmarked) [compound 177, N-4-(1-(2-fluoro-3-chlorophenylsulfonamido)cyclopentanecarboxyamido)adamantane-1-carboxyamide]
4 | 0.154 | 0.011 | CCN(C(C)(C)C(=O)NC1C2CC3CC1CC(C(N)=O)(C3)C2)S(=O)(=O)c1ccccc1N (centres unmarked) [compound 224, N-4-(2-(2-amino-N-ethylphenylsulfonamido)-2-methylpropanamido)adamantane-1-carboxyamide]
5 | > 2.5 | > 2.5 | CC(C)NC(=O)C12CC3CC(C1)C(NC(=O)C1(NS(=O)(=O)c4ccccc4Cl)CCC1)C(C3)C2 (centres unmarked) [compound 236, 4-({1-[(2-chloro-benzenesulfonyl)-methyl-amino]-cyclobutanecarbonyl}-amino)-adamantane-1-carboxylic acid-isopropylamide]
6 | 1.12 | 1.2 | COc1ccc(S(=O)(=O)NC(C)(C)C(=O)NC2C3CC4CC(C3)CC2C4)cc1[N+](=O)[O-] (centres unmarked) [compound 68, N-(adamantane-2-yl)-2-methyl-2-(4-methoxy-3-nitrophenylsulfonamido)propanamide]
7 | 0.124 | 0.047 | CCCc1ccc(S(=O)(=O)NC(C)(C)C(=O)NC2C3CC4CC2CC(C(N)=O)(C4)C3)cc1 (centres unmarked) [compound 99, N-4-(2-(4-propylphenylsulfonamido)-2-methylpropanamido)adamantane-1-carboxyamide]
8 | 0.138 | 0.111 | CC(C)(NS(=O)(=O)c1ccccc1C(F)(F)F)C(=O)NC1C2CC3CC1CC(O)(C3)C2 (centres unmarked) [compound 72, N-(5-hydroxyadamantane-2-yl)-2-methyl-2-(2-trifluoromethylphenylsulfonamido)propan amide]
9 | 0.12 | 0.038 | NC(=O)C12CC3CC(C1)C(NC(=O)C1(NS(=O)(=O)c4ccccc4)CCCC1)C(C3)C2 (centres unmarked) [compound 171, N-4-(1-(phenylsulfonamido)cyclopentanecarboxyamido)adamantane-1-carboxyamide]
10 | > 2.5 | 0.091 | CC(C)(NS(=O)(=O)c1cc(Cl)ccc1Cl)C(=O)NC1C2CC3CC(C2)CC1C3 (centres unmarked) [compound 9, N-(adamantane-2-yl)-2-methyl-2-(2,5-dichlorophenylsulfonamido)propanamide]
11 | 0.006 | 0.009 | Cc1c(Cl)cccc1S(=O)(=O)N(C)C(C)(C)C(=O)NC1C2CC3CC1CC(C(N)=O)(C3)C2 (centres unmarked) [compound 191, N-4-(2-(2-methyl-3-chloro-N-methylphenylsulfonamido)-2-methylpropanamido)adamantane-1-carboxyamide]
12 | 0.22 | 0.076 | COc1cc([N+](=O)[O-])ccc1S(=O)(=O)NC(C)(C)C(=O)NC1C2CC3CC1CC(C(N)=O)(C3)C2 (centres unmarked) [compound 128]
13 | 1.21 | 0.331 | Cc1cc(C)cc(S(=O)(=O)NC(C)(C)C(=O)NC2C3CC4CC(C3)CC2C4)c1 (centres unmarked) [compound 59, N-(adamantane-2-yl)-2-methyl-2-(3,5-dimethylphenylsulfonamido)propanamide]
14 | 0.104 | 0.005 | NC(=O)C12CC3CC(C1)C(NC(=O)C1(NS(=O)(=O)c4ccccc4[N+](=O)[O-])CCCCC1)C(C3)C2 (centres unmarked) [compound 184, N-4-(1-(2-nitrophenylsulfonamido)cyclohexanecarboxyamido)adamantane-1-carboxyamide]
15 | 0.459 | 0.058 | NC(=O)C12CC3CC(C1)C(NC(=O)C1(NS(=O)(=O)c4ccc(Cl)cc4Cl)CCC1)C(C3)C2 (centres unmarked) [compound 153, N-4-(1-(2,4-dichlorophenylsulfonamido)cyclobutanecarboxyamido)adamantane-1-carboxyamide]
16 | 0.023 | 0.011 | CN(C(C)(C)C(=O)NC1C2CC3CC1CC(C(N)=O)(C3)C2)S(=O)(=O)c1ccccc1N (centres unmarked) [compound 223, N-4-(2-(2-amino-N-methylphenylsulfonamido)-2-methylpropanamido)adamantane-1-carboxyamide]
17 | 0.083 | 0.011 | CN(C(C)(C)C(=O)NC1C2CC3CC1CC(O)(C3)C2)S(=O)(=O)c1ccccc1N (centres unmarked) [compound 225]

Row | IC50 (mouse 11β-HSD1) [µM] | IC50 (human 11β-HSD1) [µM] | SMILES
18 | 0.04 | 0.02 | CC(C)(NS(=O)(=O)c1ccccc1Cl)C(=O)NC1C2CC3CC(C2)CC1C3 (centres unmarked) [compound 6, N-(adamantane-2-yl)-2-methyl-2-(2-chlorophenylsulfonamido)propanamide]
19 | 1.1 | 0.255 | O=C(NC1C2CC3CC(C2)CC1C3)C1(NS(=O)(=O)c2ccccc2[N+](=O)[O-])CCC1 (centres unmarked) [compound 137, N-(adamantane-2-yl)-1-(2-nitrophenylsulfonamido)cyclobutanecarboxyamide]
20 | 0.215 | 0.208 | CC(C)(NS(=O)(=O)c1ccc([N+](=O)[O-])c(C(F)(F)F)c1)C(=O)NC1C2CC3CC1CC(C(N)=O)(C3)C2 (centres unmarked) [compound 113, N-4-(2-(3-trifluoromethyl-4-nitrophenylsulfonamido)-2-methylpropanamido)adamantane-1-carboxyamide]
21 | 0.117 | 0.085 | CC(C)(NS(=O)(=O)c1ccccc1N)C(=O)NC1C2CC3CC1CC(C(N)=O)(C3)C2 (centres unmarked) [compound 219, N-4-(2-(2-aminophenylsulfonamido)-2-methylpropanamido)adamantane-1-carboxyamide]
22 | 0.806 | 0.113 | O=C(NC1C2CC3CC(C2)CC1C3)C1(NS(=O)(=O)c2ccccc2Br)CCC1 (centres unmarked) [compound 138, N-(adamantane-2-yl)-1-(2-bromophenylsulfonamido)cyclobutanecarboxyamide]
23 | > 2.5 | > 2.5 | CC(C)(NS(=O)(=O)Cc1ccc(Cl)c(Cl)c1)C(=O)NC1C2CC3CC(C2)CC1C3 (centres unmarked) [compound 35, N-(adamantane-2-yl)-2-methyl-2-((3,4-dichlorophenyl)methylsulfonamido)propanamide]
24 | 0.098 | 0.004 | CCN(C(C)(C)C(=O)NC1C2CC3CC1CC(C(N)=O)(C3)C2)S(=O)(=O)c1ccccc1Cl (centres unmarked) [compound 217]
25 | 0.056 | 0.014 | CC(C)(NS(=O)(=O)c1ccc(Cl)cc1Cl)C(=O)NC1C2CC3CC1CC(C(N)=O)(C3)C2 (centres unmarked) [compound 88, N-4-(2-(2,4-dichlorophenylsulfonamido)-2-methylpropanamido)adamantane-1-carboxyamide]
26 | 0.565 | 1.63 | COc1ccc(S(=O)(=O)NC2(C(=O)NC3C4CC5CC3CC(C(N)=O)(C5)C4)CCC2)cc1F (centres unmarked) [compound 154, N-4-(1-(3-fluoro-4-methoxyphenylsulfonamido)cyclobutanecarboxyamido)adamantane-1-carboxyamide]
27 | 0.405 | 0.078 | CC(C)(NS(=O)(=O)c1ccccc1C#N)C(=O)NC1C2CC3CC1CC(C(N)=O)(C3)C2 (centres unmarked) [compound 130, 4-[2-(2-cyano-benzenesulfonylamino)-2-methyl-propionylamino]-adamantane-1-carboxylic acid amide]
28 | 1.12 | 0.555 | Cc1ccc(S(=O)(=O)NC(C)(C)C(=O)NC2C3CC4CC(C3)CC2C4)cc1F (centres unmarked) [compound 27, N-(adamantane-2-yl)-2-methyl-2-(4-methyl-3-fluorophenylsulfonamido)propanamide]
29 | 0.008 | 0.008 | CC(C)(NS(=O)(=O)c1cccc2cccnc12)C(=O)NC1C2CC3CC(C2)CC1C3 (centres unmarked) [compound 17, N-(adamantane-2-yl)-2-methyl-2-(quinoline-8-sulfonamido)propanamide]
30 | 0.005 | 0.012 | NC(=O)C12CC3CC(C1)C(NC(=O)C1(NS(=O)(=O)c4c(Cl)cccc4Cl)CCCCC1)C(C3)C2 (centres unmarked) [compound 186, N-4-(1-(2,6-dichlorophenylsulfonamido)cyclohexanecarboxyamido)adamantane-1-carboxyamide]
31 | 1.06 | 0.409 | CC(C)(NS(=O)(=O)c1ccc(Cl)cc1F)C(=O)NC1C2CC3CC(C2)CC1C3 (centres unmarked) [compound 31, N-(adamantane-2-yl)-2-methyl-2-(4-chloro-2-fluorophenylsulfonamido)propanamide]
32 | 0.182 | 0.008 | CCN(C(C)(C)C(=O)NC1C2CC3CC1CC(C(N)=O)(C3)C2)S(=O)(=O)c1ccccc1C (centres unmarked) [compound 209, N-4-(2-(2-methyl-N-ethylphenylsulfonamido)-2-methylpropanamido)adamantane-1-carboxyamide]
33 | 0.005 | 0.002 | CN(C(C)(C)C(=O)NC1C2CC3CC1CC(C(N)=O)(C3)C2)S(=O)(=O)c1ccccc1Cl (centres unmarked) [compound 190, N-4-(2-(2-chloro-N-methylphenylsulfonamido)-2-methylpropanamido)adamantane-1-carboxyamide]
34 | 0.644 | 0.135 | COc1cc([N+](=O)[O-])ccc1S(=O)(=O)NC(C)(C)C(=O)NC1C2CC3CC(C2)CC1C3 (centres unmarked) [compound 60, N-(adamantane-2-yl)-2-methyl-2-(4-nitro-2-methoxyphenylsulfonamido)propanamide]
